Results taken from patent US9617216B2, “Antifungal oxodihydropyridinecarbohydrazide derivative” (Daewoong Pharmaceutical Co., Ltd., priority 2013, dated 2017).
Converted amounts (≈) assume the structure as drawn.

Assays:
Format in all cases: cell-based
Candida albicans [1] = experiment: In vitro fungicidal activity test (MFC, minimum fungicidal concentration); settings: minimum concentration with no fungal growth, Sabouraud dextrose agar plate, 35° C., 48 hours, naked eye; for MFC: Candida albicans
Procedure: As samples of fungicidal agents, 10 mM stock solutions were diluted 10-fold by adding with RPMI 1640 medium, followed by a 5-fold serial dilution, and used as the highest concentration for evaluation of antifungal activity (MIC). The samples with the highest concentration of the fungicidal agents were treated with a 2-fold serial dilution into 11 different concentrations, and the final concentrations were determined by mixing with the strains at a 1:1 ratio. In particular, the concentration of dimethylsulfoxide used as an excipient was made to a final 1% (VN). The evaluations of the fungicidal activity of Candida albicans were performed using a test plate already completed of antifungal activity, from the highest concentration of a given sample to the concentration right next to the concentration determined to be MIC. Test solutions at each concentration were pipetted about 5 times, all were collected (about a total of 225 μL), and added into a 12-well Sabouraud dextrose agar plate.

Candida albicans [2] = experiment: In vitro antifungal activity test (MIC), Candida albicans; settings: concentration at which growth is inhibited by 80% vs negative control, 35° C., 24 hours, RPMI 1640, alama blue; for MIC80: Candida albicans
Procedure: (§1) The antifungal activities of the compounds of the present invention were evaluated using Candida albicans as yeast fungus, and Aspergillus fumigatus as a filamentous fungus. The above fungi used were all purchased from American Type Culture Collection (ATCC). The strains used in the experiment were inoculated into a Sabouraud dextrose agar medium, and then cultured at 35° C. for a sufficient period of time, e.g., 24 hours for Candida albicans, and about 7 days for Aspergillus fumigatus. As for Candida albicans, about 5 to 7 single colonies were taken from the cultured medium, sufficiently suspended in 1 ml of 0.85% sterile saline solution, and adjusted to have an optical density of 0.095 to 0.107 at 530 nm. A preparation of a strain diluent was diluted in Roswell park memorial institute (RPMI) 1640 medium at a 1:10 ratio, and the resultant was diluted again at a 1:100 ratio to obtain an inoculation preparation for Candida albicans with a concentration of 1.0×10^3 to 5.0×10^3 CFU/mL. As for Aspergillus fumigatus, the cultured Sabouraud dextrose agar was added with 1 mL of 0.2% Tween 20 diluted with 0.85% sterile saline solution, and then the plate was shaken to detach conidium from the plate. The solution collected from the plate surface was transferred into a sterile tube, and placed at room temperature for 5 minutes to deposit heavy substances. The resulting supernatant was transferred into the sterile tube, sufficiently suspended for about 15 seconds, and prepared a strain diluent with a concentration of 0.4×10^6 to 5.0×10^6 CFU/mL using a hemocytometer. The thus prepared strain diluent was diluted in RPMI 1640 medium at a 1:100 ratio to obtain an inoculation preparation for Aspergillus fumigatus. Candida albicans was cultured at 35° C. for 24 hours and Aspergillus fumigatus was cultured at 35° C. for 48 hours, and the concentrations, at which growth is inhibited by 80% or 50% compared to a negative control group, were determined using alama blue color developing reagent. All experiments were repeated twice for each concentration, and the results of antifungal activities (MIC80 MIC50 μg/mL) are shown in Tables 1 to 2.

Aspergillus fumigatus = experiment: In vitro antifungal activity test (MIC), Aspergillus fumigatus; settings: concentration at which growth is inhibited by 50% vs negative control, 35° C., 48 hours, RPMI 1640, alama blue; for MIC50: Aspergillus fumigatus
Procedure: as §1

| Structure (SMILES) | MFC (Candida albicans [1]) [µg/mL] | MIC80 (Candida albicans [2]) [µg/mL] | MIC50 (Aspergillus fumigatus) [µg/mL] | Candida albicans MFC (Candida albicans [1]) [µg/mL] | Aspergillus fumigatus MIC50 (Aspergillus fumigatus) [µg/mL] | Candida albicans MIC80 (Candida albicans [2]) [µg/mL] |
| --- | --- | --- | --- | --- | --- | --- |
| Cn1cc(C(=O)NNc2cccc(F)c2)ccc1=O [Example 2, N′-(3-fluorophenyl)-1-methyl-6-oxo-1,6-dihydropyridine-3-carbohydrazide] | 0.1 (≈ 0.383 µM) | 0.02 (≈ 0.0766 µM) | – | – | – | – |
| Cn1cc(C(=O)NNc2cc(F)cc(F)c2)ccc1=O [Example 13, N′-(3,5-difluorophenyl)-1-methyl-6-oxo-1,6-dihydropyridine-3-carbohydrazide] | 0.1 (≈ 0.358 µM) | 0.03 (≈ 0.107 µM) | 0.44 (≈ 1.58 µM) | – | – | – |
| COc1ncc(NNC(=O)c2ccc(=O)n(C)c2)cc1F [Example 21, N′-(5-fluoro-6-methoxypyridine-3-yl)-1-methyl-6-oxo-1,6-dihydropyridine-3-carbohydrazide] | 0.1 (≈ 0.342 µM) | 0.03 (≈ 0.103 µM) | 0.5 (≈ 1.71 µM) | – | – | – |
| COc1ncc(NNC(=O)c2cc(-c3ccc(F)cc3)c(=O)n(C)c2)cc1F [Example 37, N′-(5-fluoro-6-methoxypyridine-3-yl)-5-(4-fluorophenyl)-1-methyl-6-oxo-1,6-dihydropyridine-3-carbohydrazide] | 0.1 (≈ 0.259 µM) | 0.04 (≈ 0.104 µM) | 0.3 (≈ 0.776 µM) | – | – | – |
| COc1ncc(NNC(=O)c2cc(-c3ccc(Cl)cc3)c(=O)n(C)c2)cc1F [Example 38, 5-(4-chlorophenyl)-N′-(5-fluoro-6-methoxypyridine-3-yl)-1-methyl-6-oxo-1,6-dihydropyridine-3-carbohydrazide] | 0.1 (≈ 0.248 µM) | 0.02 (≈ 0.0497 µM) | 0.3 (≈ 0.745 µM) | – | – | – |
| COc1ncc(NNC(=O)c2cc(-c3ccc(C(F)(F)F)cc3)c(=O)n(C)c2)cc1F [Example 39, N′-(5-fluoro-6-methoxypyridine-3-yl)-1-methyl-6-oxo-5-(4-(trifluoromethyl)phenyl)-1,6-dihydropyridine-3-carbohydrazide] | 0.2 (≈ 0.458 µM) | 0.04 (≈ 0.0917 µM) | 0.7 (≈ 1.6 µM) | – | – | – |
| COc1ncc(NNC(=O)c2cc(-c3ccc(C#N)cc3)c(=O)n(C)c2)cc1F [Example 40, 5-(4-cyanophenyl)-N′-(5-fluoro-6-methoxypyridine-3-yl)-1-methyl-6-oxo-1,6-dihydropyridine-3-carbohydrazide] | 0.2 (≈ 0.508 µM) | 0.04 (≈ 0.102 µM) | – | – | – | – |
| O=C(NNc1ccc(F)cc1F)c1ccc(=O)n(Cc2ccc(C(F)(F)F)nc2)c1 [Example 54, N′-(2,4-difluorophenyl)-6-oxo-1-((6-(trifluoromethyl)pyridine-3-yl)methyl)-1,6-dihydropyridine-3-carbohydrazide] | – | 0.08 (≈ 0.189 µM) | 0.7 (≈ 1.65 µM) | – | – | – |
| CC[C@H](C)C[C@H](C)CCCCCCCCC(=O)N[C@H]1C[C@@H](O)[C@@H](NCCN)NC(=O)[C@@H]2[C@@H](O)CCN2C(=O)[C@H]([C@H](O)CCN)NC(=O)[C@H]([C@H](O)[C@@H](O)c2ccc(O)cc2)NC(=O)[C@@H]2C[C@@H](O)CN2C(=O)[C@H]([C@@H](C)O)NC1=O [caspofungin, reference compound] | – | – | – | 4 | 0.3 | 0.25 |
| OC(Cn1cncn1)(Cn1cncn1)c1ccc(F)cc1F [fluconazole, reference compound] | > 32 | 0.25 (≈ 0.816 µM) | > 32 | – | – | – |
